Patent US11166924B2, “N-methyl-d-aspartate receptor allosteric modulators and methods for their use” (Qingdao Primedicine Pharmaceutical Company, Ltd., priority 2016, dated 2021)

Tests used:
GluN1/GluN2A^F115S = molecular target: T1, GluN1/GluN2A^F115S (Rattus norvegicus, UniProt P35439+Q00959, F115S); experiment: Patch clamp in HEK293 cells expressing mutant GluN1/GluN2A F115S; type: cell-based
T1 construct: expressed in transfected cells; host or cells: HEK293
Procedure: (§1) Whole cell patch-clamp recordings were performed under voltage-clamp mode using an Axopatch 200B or 1D patch-clamp amplifier (Molecular Devices). Whole-cell currents were recorded at a holding potential of −60 mV unless indicated elsewhere, and signals were filtered at 2 kHz, digitized at 10 kHz (Digidata 1322A). Recording pipettes (3-5 MΩ) were filled with intracellular solution containing (mM): CsCl 140, HEPES 10, Mg-ATP 4, QX-314 5, pH 7.20; osmolarity, 290-295 mOsm. BAPTA (10 mM) was added in the intracellular solution (unless otherwise specified). The coverslips were continuously superfused with extracellular solution containing (mM): NaCl 140, KCl 5.4, HEPES 10, CaCl2 1.3, glucose 20, pH 7.4; osmolarity, 305-315 mOsm. NMDA-induced currents were applied by NMDA through perfusion fast-step (Warner Instruments). With perfusion fast-step system, NMDA application was achieved by using a two-square barrel glass tubing and depending on the age of the cultured neurons, CNQX (10 μM), TTX (0.5 μM) or BIC (10 μM) were added in the extracellular solution to minimize the activation of ionotropic glutamate receptors and voltage-gated sodium channels, respectively. All experiments were performed at room temperature. Recordings from at least six HEK293 cells/neurons were performed for all active compounds. […]

GluN1/GluN2A^P79A = molecular target: T2, GluN1/GluN2A^P79A (Rattus norvegicus, UniProt P35439+Q00959, P79A); experiment: Patch clamp in HEK293 cells expressing mutant GluN1/GluN2A P79A; type: cell-based
T2 construct: expressed in transfected cells; host or cells: HEK293
T2 sequence (Q00959 23-1464 P79A, other chains not shown): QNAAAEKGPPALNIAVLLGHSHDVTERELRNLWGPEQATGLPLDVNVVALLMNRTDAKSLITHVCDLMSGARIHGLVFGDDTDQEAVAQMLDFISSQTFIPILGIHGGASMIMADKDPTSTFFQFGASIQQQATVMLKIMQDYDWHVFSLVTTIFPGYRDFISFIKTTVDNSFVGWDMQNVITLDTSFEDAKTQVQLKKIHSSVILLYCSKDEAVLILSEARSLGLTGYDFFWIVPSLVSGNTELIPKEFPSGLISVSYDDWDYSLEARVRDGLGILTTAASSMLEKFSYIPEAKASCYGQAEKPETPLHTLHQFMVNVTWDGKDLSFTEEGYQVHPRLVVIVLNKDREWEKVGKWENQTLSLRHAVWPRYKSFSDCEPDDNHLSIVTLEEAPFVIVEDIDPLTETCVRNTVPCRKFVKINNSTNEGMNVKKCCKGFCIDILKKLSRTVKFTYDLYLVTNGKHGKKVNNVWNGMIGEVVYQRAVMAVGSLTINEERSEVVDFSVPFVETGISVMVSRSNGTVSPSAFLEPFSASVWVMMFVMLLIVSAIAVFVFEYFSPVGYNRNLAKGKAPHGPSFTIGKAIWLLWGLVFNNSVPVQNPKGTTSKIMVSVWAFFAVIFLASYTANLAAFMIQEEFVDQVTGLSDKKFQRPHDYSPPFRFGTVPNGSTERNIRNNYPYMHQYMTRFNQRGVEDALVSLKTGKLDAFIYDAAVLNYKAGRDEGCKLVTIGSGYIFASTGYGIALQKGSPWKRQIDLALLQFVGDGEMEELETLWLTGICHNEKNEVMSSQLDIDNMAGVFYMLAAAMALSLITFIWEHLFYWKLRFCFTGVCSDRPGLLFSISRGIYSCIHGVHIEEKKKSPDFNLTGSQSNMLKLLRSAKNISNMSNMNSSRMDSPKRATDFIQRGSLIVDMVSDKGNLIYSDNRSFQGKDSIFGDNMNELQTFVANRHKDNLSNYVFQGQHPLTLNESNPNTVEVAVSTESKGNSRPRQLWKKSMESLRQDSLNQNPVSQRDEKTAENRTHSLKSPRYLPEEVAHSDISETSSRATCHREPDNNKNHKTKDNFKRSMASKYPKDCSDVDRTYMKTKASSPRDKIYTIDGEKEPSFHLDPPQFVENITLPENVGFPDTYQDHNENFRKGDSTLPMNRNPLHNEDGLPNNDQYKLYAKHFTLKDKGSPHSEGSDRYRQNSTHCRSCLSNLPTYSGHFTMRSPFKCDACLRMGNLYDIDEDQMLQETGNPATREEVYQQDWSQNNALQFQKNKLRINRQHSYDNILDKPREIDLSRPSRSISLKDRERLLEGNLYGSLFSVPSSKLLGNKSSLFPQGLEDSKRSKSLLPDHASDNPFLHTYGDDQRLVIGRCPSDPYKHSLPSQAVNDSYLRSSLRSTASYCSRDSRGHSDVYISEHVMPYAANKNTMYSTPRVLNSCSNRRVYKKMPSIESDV
Procedure: as §1

GluN1/GluN2A^P178G = molecular target: T3, GluN1/GluN2A^P178G (Rattus norvegicus, UniProt P35439+Q00959, P178G); experiment: Patch clamp in HEK293 cells expressing mutant GluN1/GluN2A P178G; type: cell-based
T3 construct: expressed in transfected cells; host or cells: HEK293
T3 sequence (Q00959 23-1464 P178G, other chains not shown): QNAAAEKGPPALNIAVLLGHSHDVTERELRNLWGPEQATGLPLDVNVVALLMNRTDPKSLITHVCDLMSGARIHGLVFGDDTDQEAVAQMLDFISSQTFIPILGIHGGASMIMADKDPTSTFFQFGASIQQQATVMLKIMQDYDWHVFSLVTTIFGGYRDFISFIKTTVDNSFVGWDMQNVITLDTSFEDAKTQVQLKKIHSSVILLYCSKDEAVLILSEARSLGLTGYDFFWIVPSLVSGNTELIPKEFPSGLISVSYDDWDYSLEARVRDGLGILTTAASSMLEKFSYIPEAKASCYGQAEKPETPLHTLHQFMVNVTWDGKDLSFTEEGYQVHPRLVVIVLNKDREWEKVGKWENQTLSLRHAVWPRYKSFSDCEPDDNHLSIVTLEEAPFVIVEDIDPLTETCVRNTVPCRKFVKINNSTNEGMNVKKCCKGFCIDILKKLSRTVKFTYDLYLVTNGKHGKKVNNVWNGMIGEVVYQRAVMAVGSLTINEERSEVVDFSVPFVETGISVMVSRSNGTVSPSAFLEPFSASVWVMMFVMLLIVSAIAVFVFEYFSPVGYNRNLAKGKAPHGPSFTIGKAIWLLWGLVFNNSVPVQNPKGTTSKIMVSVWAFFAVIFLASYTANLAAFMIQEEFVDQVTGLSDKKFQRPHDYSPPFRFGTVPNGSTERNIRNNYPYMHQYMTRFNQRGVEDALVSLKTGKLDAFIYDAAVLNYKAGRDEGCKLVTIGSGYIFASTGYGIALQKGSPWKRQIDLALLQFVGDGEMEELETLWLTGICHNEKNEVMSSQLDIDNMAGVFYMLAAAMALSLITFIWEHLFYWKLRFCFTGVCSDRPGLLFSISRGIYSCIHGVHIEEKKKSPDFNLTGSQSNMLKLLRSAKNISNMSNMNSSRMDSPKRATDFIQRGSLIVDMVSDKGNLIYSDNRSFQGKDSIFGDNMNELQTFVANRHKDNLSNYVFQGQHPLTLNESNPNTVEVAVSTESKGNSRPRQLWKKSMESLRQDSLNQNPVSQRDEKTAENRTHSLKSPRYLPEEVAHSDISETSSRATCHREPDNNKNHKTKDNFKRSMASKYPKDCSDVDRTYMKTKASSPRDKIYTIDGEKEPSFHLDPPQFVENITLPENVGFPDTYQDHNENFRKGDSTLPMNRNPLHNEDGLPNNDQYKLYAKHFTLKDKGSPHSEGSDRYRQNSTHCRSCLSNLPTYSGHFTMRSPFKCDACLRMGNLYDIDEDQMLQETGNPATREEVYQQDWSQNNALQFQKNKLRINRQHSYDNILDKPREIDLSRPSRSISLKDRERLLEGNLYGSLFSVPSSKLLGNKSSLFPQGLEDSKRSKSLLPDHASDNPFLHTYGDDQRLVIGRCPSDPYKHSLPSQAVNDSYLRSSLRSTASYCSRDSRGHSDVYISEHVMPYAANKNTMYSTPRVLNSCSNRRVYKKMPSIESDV
Procedure: as §1

[1] = system: post-stroke locomotory behavior; experiment: Neurological behavioral tests after stroke; type: in vivo, rat; conditions: 28 days after stroke onset, versus untreated control rats
Procedure: To assess functional recovery of neural circuits damaged by ischemic insult, three locomotor activity (sensorimotor) deficit modalities were tested: 1) vertical activity (the total number of beam interruptions that occurred in the vertical sensor); 2) number of vertical movements (number of animal rears); and 3) vertical movement time (the amount of time, in seconds, the animal rears) using the VersaMax Animal Activity Monitor (Accuscan Instruments). An ischemic rat was placed into the recording chamber during the ‘dark’ phase of the day/night cycle, and vertical movement time (seconds) was automatically recorded by computer over a 2 h period. The total length of vertical movement represents the recovery of locomotor circuits injured by ischemic stroke.
Neurobehavioral assays were performed to assess functional recovery of neurons post-stroke.

[2] = Pharmacokinetics after i.v. injection, CSF and serum by HPLC-ECD; type: in vivo, rat
Procedure: Npam43 was isolated from the CSF and serum matrix using high performance liquid chromatography and quantified via electrochemical detection. The system consisted of an ESA 582 pump (Bedford, Mass.), a pulse damper (Scientific Systems Inc., State College, Pa.), a Rheodyne Inert manual injector (model 9125i, 20 μL injection loop; Rohnert Park, Calif.), a Tosoh Bioscience Super ODS TSK column (2 μm particle, 2 mm×10 mm; Montgomeryville, Pa.), and an Antec Leyden Intro Electrochemical detector with VT-03 flow cell with a Ag/AgCl reference electrode (Vapplied=+800 mV; Leyden, The Netherlands). The mobile phase was a 20 mM phosphate buffer-acetonitrile (80:20, v/v) mixture, pH 7.0, flowed through the system at 0.1 mL/min. The column was maintained at 40° C. throughout the analysis and the injection volume was 8 uL. Prior to use, the mobile was filtered through a […] membrane and degassed using a vacuum pump and maintained under helium purging during experimental testing. EZChrome Elite software (Scientific Software, Pleasanton, Calif.) was used to acquire and analyze chromatographic data.
Samples were prepared by mixing aliquots (50:50) of the specimen with acetonitrile. The samples were mixed, allowed to rest at ambient temperature for 10 min and centrifuged at 5000 g for 5 min. Eight microliters of the supernatant was injected.
CSF and serum samples generated from the in vivo studies were thawed, and 8 μl was transferred to individual Eppendorf tubes. The internal standard (IS) of 2 μl of 0.5 μg/ml Npam50 was then added, followed by 22 μl of acetonitrile, after which samples were vortexed for 5-10 s and centrifuged for 5 min at 20,000×g to sediment precipitated protein. […]
An in-vivo pharmacological profile of Npam43 was evaluated using Sprague Dawley mature (˜300 g) rats. Npam43 was injected intravenously (i.v) at different doses ranging from 0.5-5 mg/kg and cerebrospinal fluid (CSF) and serum samples were extracted and analyzed using a high performance liquid chromatography electrochemical detection assay (HPLC-ECD). […]

T1 sequence (Q00959 23-1464 F115S, other chains not shown): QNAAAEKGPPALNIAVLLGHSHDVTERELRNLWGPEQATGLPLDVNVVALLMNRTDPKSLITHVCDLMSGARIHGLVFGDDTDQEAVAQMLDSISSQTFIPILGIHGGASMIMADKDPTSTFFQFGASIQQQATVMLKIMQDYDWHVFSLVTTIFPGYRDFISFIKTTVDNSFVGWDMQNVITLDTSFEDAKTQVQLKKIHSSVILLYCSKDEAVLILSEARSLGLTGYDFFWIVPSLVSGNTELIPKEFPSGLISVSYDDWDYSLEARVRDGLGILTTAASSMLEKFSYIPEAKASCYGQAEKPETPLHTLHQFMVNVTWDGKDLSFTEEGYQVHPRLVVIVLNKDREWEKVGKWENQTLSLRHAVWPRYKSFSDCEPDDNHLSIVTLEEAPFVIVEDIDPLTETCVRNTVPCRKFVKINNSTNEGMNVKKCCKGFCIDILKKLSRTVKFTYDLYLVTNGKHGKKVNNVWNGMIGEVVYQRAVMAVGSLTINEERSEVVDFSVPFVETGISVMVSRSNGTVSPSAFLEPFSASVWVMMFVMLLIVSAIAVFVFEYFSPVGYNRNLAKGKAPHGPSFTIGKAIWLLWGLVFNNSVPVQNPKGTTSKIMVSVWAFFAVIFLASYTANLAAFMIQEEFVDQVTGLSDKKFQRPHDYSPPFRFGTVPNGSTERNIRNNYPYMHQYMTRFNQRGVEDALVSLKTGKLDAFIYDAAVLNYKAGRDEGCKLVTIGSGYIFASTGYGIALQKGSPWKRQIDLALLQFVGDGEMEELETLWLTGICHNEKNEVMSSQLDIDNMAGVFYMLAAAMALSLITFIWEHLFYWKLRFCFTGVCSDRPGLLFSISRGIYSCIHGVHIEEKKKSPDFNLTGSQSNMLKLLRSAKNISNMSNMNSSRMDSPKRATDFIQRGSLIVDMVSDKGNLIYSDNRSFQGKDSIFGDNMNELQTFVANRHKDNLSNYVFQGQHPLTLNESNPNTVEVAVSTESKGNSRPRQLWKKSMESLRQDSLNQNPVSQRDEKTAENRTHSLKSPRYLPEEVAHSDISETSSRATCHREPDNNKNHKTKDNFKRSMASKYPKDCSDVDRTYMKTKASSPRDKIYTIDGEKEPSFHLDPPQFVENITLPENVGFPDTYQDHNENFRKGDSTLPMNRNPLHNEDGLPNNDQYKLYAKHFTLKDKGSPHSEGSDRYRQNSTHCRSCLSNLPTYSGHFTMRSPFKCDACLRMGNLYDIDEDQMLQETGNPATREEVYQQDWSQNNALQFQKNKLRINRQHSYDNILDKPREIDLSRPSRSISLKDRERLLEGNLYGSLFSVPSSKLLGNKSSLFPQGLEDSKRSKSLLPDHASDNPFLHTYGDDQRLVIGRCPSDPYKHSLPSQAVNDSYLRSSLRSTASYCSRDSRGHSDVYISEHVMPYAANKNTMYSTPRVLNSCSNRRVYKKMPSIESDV

CCOc1cc(Cl)c(Cl)c(/C=N/NC(=O)c2ccccc2Br)c1O [Npam43, (E)-2-bromo-N′-(2,3-dichloro-5-ethoxy-6-hydroxybenzylidene)benzohydrazide]
Relative potentiation (GluN1/GluN2A^F115S; Table 3): 68.1 ± 14.1% | Net Difference potentiation (GluN1/GluN2A^F115S; normalized to wild-type): −67.4±11.8% | Relative potentiation (GluN1/GluN2A^P79A; Table 3): 99.3 ± 2.8% | Net Difference potentiation (GluN1/GluN2A^P79A; normalized to wild-type): −52.5 ± 0.20% | Relative potentiation (GluN1/GluN2A^P178G; Table 3): 95.5 ± 3.8% | Net Difference potentiation (GluN1/GluN2A^P178G; normalized to wild-type): −54.3 ± 0.42% | Post-stroke locomotory behavior [1]: increased post-stroke locomotory behavior | half-life ([2]; Sprague-Dawley, rat, CSF, iv, rats, estimated): 2.95 ± 0.6 h | Blood-brain-barrier penetration ([2]; i.v. 0.5-5 mg/kg, Sprague Dawley rats): effective at penetrating the blood-brain-barrier (BBB) | Metabolic stability in the CSF and serum ([2]; i.v., rats, FIG. 22): moderate metabolic stability
